The supplement of paper PMC10307832

Assays:
Experiment in all cases: relative viability (nuclei count vs DMSO), 5 days (fraction); higher = more cells survive
[1] = compound: CC1=CC(=NN1)NC2=CC(=NC(=N2)/C=C/C3=CC=CC=C3)N4CCN(CC4)C + O=C(c1cc(Cc2n[nH]c(=O)c3ccccc23)ccc1F)N1CCN(C(=O)C2CC2)CC1 [Olaparib] (partner 8 µM)
In short: (§1)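 Relative viability is defined as nuclei in treated wells over nuclei in vehicle wells. Duplicate plates were run and medians reported. Lung cancer cell lines in 1536-well plates were dosed by pin tool one day after seeding, with one drug or with a fixed anchor-drug dose plus five library-drug doses (not always all listed) in √10 steps, and nuclei were counted after 5 days.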

[2] = compound: CC1=CC(=NN1)NC2=CC(=NC(=N2)/C=C/C3=CC=CC=C3)N4CCN(CC4)C + N=C(N)NC(=N)NCCc1ccccc1 [Phenformin] (partner 250 µM)
In short: as §1

Obatoclax + Navitoclax = compound: COC1=CC(c2cc3ccccc3[nH]2)=N/C1=C\c1[nH]c(C)cc1C [Obatoclax] + CC1(C)CCC(c2ccc(Cl)cc2)=C(CN2CCN(c3ccc(C(=O)NS(=O)(=O)c4ccc(N[C@H](CCN5CCOCC5)CSc5ccccc5)c(S(=O)(=O)C(F)(F)F)c4)cc3)CC2)C1 [Navitoclax] (partner 0.5 µM)
In short: as §1

Bortezomib + OSI-027 = compound: CC(C)C[C@H](NC(=O)[C@H](Cc1ccccc1)NC(=O)c1cnccn1)B(O)O [Bortezomib] + COc1cccc2cc(-c3nc([C@H]4CC[C@H](C(=O)O)CC4)n4ncnc(N)c34)[nH]c12 [OSI-027] (partner 0.5 µM)
In short: as §1

Cell Line	relative viability ([1]; first compound 0.08 µM)	relative viability ([1]; first compound 0.253 µM)	relative viability ([1]; first compound 0.8 µM)	relative viability ([1]; first compound 2.53 µM)	relative viability ([1]; first compound 8 µM)	relative viability ([2]; first compound 0.08 µM)	relative viability ([2]; first compound 0.253 µM)	relative viability ([2]; first compound 0.8 µM)	relative viability ([2]; first compound 2.53 µM)	relative viability ([2]; first compound 8 µM)	relative viability (Obatoclax + Navitoclax; first compound 0.01 µM)	relative viability (Obatoclax + Navitoclax; first compound 0.03162 µM)	relative viability (Obatoclax + Navitoclax; first compound 0.1 µM)	relative viability (Obatoclax + Navitoclax; first compound 0.3162 µM)	relative viability (Obatoclax + Navitoclax; first compound 1 µM)	relative viability (Bortezomib + OSI-027; first compound 0.0002 µM)	relative viability (Bortezomib + OSI-027; first compound 0.000632 µM)	relative viability (Bortezomib + OSI-027; first compound 0.002 µM)	relative viability (Bortezomib + OSI-027; first compound 0.006325 µM)	relative viability (Bortezomib + OSI-027; first compound 0.02 µM)
LOU-NH91	0.871	0.958	0.926	0.875	0.385	0.7	0.768	0.78	0.509	0.365	0.761	0.739	0.556	0.549	0.364	0.688	0.68	0.581	0.298	0.251
LU99A	0.275	0.244	0.266	0.182	0.103	0.748	0.707	0.716	0.411	0.153	0.855	0.788	0.831	0.501	0.545	0.328	0.294	0.318	0.296	0.197
LXF-289	1.05	1.04	0.87	0.411	0.055	0.478	0.464	0.496	0.265	0.114	0.912	0.883	0.926	0.905	0.96	0.773	0.754	0.803	0.0966	0.0619
NCI-H23	0.303	0.325	0.224	0.134	0.108	0.793	0.887	0.711	0.247	0.204	0.907	0.733	0.847	0.537	0.813	0.579	0.335	0.542	0.282	0.138
NCI-H322M	0.662	0.762	0.742	0.486	0.281	0.759	0.852	0.688	0.31	0.218	1.16	1.26	1.29	1.14	1.39	0.524	–	0.519	0.288	0.27
NCI-H441	0.569	0.55	0.503	0.401	0.116	0.909	0.955	0.797	0.192	0.156	0.775	0.535	0.832	0.546	0.259	0.648	0.38	0.233	0.154	0.188
NCI-H460	0.38	0.362	0.427	0.147	0.025	0.552	0.597	0.514	0.0212	0.0183	1.08	1.2	1.12	0.034	0.0115	0.561	0.478	0.64	0.126	0.021
NCI-H520	0.3	0.332	0.307	0.152	0.104	0.655	0.62	0.603	0.23	0.172	1.1	1.16	1.07	0.795	0.288	0.193	0.235	0.196	0.272	0.223
NCI-H596	0.729	0.607	0.601	0.412	0.24	0.767	0.807	0.627	0.608	0.259	0.898	0.74	0.775	0.519	0.583	0.804	0.619	0.766	0.21	0.195
NCI-H647	0.524	0.521	0.493	0.0425	0.0194	0.481	0.634	0.47	0.0675	0.0451	1.11	0.974	0.633	0.477	0.229	0.574	0.437	0.483	0.0304	0.0382
NCI-H727	0.708	0.635	0.791	0.722	0.44	0.398	–	0.41	0.295	0.17	0.416	0.487	0.409	0.451	0.262	0.557	0.515	0.494	0.467	0.378
NCI-H838	0.752	0.749	0.564	0.139	0.0822	0.567	0.583	0.462	0.123	0.107	1.14	1.26	1.03	0.776	0.573	0.355	0.363	0.44	0.178	0.131
NCI-H1355	0.707	0.813	0.69	0.324	0.113	0.484	0.423	0.435	0.26	0.148	0.883	0.976	0.953	0.885	0.91	0.386	0.356	0.44	0.22	0.163
NCI-H1395	0.472	0.462	0.445	0.355	0.278	0.494	0.434	0.427	0.327	0.264	1.2	1.13	0.949	0.865	0.69	0.574	0.529	0.639	0.353	0.271
NCI-H1437	0.603	0.664	0.631	0.416	0.138	0.3	0.331	0.307	0.16	0.107	1.03	1.1	1.08	1.1	0.746	0.86	0.825	0.871	0.138	0.132
NCI-H1650	0.831	0.831	0.764	0.748	0.0952	0.418	0.404	0.464	0.106	0.0916	1.03	1.08	1.18	0.986	0.239	0.657	0.383	0.205	0.132	0.133

Cell Line	relative viability ([1]; first compound 0.08 µM)	relative viability ([1]; first compound 0.253 µM)	relative viability ([1]; first compound 0.8 µM)	relative viability ([1]; first compound 2.53 µM)	relative viability ([1]; first compound 8 µM)	relative viability ([2]; first compound 0.08 µM)	relative viability ([2]; first compound 0.253 µM)	relative viability ([2]; first compound 0.8 µM)	relative viability ([2]; first compound 2.53 µM)	relative viability ([2]; first compound 8 µM)	relative viability (Obatoclax + Navitoclax; first compound 0.01 µM)	relative viability (Obatoclax + Navitoclax; first compound 0.03162 µM)	relative viability (Obatoclax + Navitoclax; first compound 0.1 µM)	relative viability (Obatoclax + Navitoclax; first compound 0.3162 µM)	relative viability (Obatoclax + Navitoclax; first compound 1 µM)	relative viability (Bortezomib + OSI-027; first compound 0.0002 µM)	relative viability (Bortezomib + OSI-027; first compound 0.000632 µM)	relative viability (Bortezomib + OSI-027; first compound 0.002 µM)	relative viability (Bortezomib + OSI-027; first compound 0.006325 µM)	relative viability (Bortezomib + OSI-027; first compound 0.02 µM)
NCI-H1651	0.177	0.189	0.176	0.166	0.135	0.355	0.346	0.312	0.124	0.112	1.04	0.991	0.968	0.507	0.224	0.661	0.641	0.416	0.109	0.11
NCI-H1666	0.748	0.7	0.767	0.741	0.501	0.62	0.556	0.542	0.391	0.302	0.839	1.31	0.865	0.388	0.277	0.802	0.869	0.945	0.43	0.324
NCI-H1734	0.562	0.645	0.554	0.408	0.118	0.417	0.375	0.391	0.162	0.104	0.745	0.841	–	0.723	0.668	0.635	0.452	0.541	0.164	0.133
NCI-H1755	0.877	0.89	0.856	0.514	0.253	0.658	0.616	0.551	0.333	0.221	0.974	0.966	1	0.951	1.04	0.706	0.568	0.68	0.27	0.228
NCI-H1792	0.437	0.501	0.431	0.374	0.031	0.273	0.267	0.166	0.0557	0.0429	0.647	0.586	–	0.626	0.561	0.687	0.577	0.563	0.654	0.497
NCI-H1793	0.845	1.06	0.667	0.138	0.0993	0.344	0.423	0.314	0.132	0.121	0.337	0.291	0.51	0.422	0.47	0.278	0.213	0.272	0.223	0.145
NCI-H1915	0.256	0.255	0.262	0.223	0.126	0.368	0.393	0.337	0.234	0.165	0.766	0.638	0.711	0.76	0.785	0.582	0.507	0.613	0.186	0.0754
NCI-H1944	0.416	0.406	0.467	0.29	0.207	0.195	0.225	0.186	0.166	0.119	0.97	1.01	1.05	1.05	1.08	0.383	0.383	0.449	0.347	0.239
NCI-H1975	0.75	0.842	0.726	0.389	0.115	0.409	0.397	0.388	0.138	0.118	1.18	1.1	0.975	0.943	1.01	0.674	0.624	0.196	0.111	0.106
NCI-H1993	1.01	1.24	0.894	0.829	0.419	0.462	0.492	0.427	0.498	0.437	1.04	0.816	1.03	0.867	0.982	0.508	0.552	0.546	0.47	0.53
NCI-H2009	0.657	0.746	0.691	0.811	0.324	0.501	0.503	0.492	0.27	0.148	1.13	1.23	1.15	1.17	0.258	0.664	0.585	0.486	0.0717	0.084
NCI-H2023	0.464	0.586	0.384	0.0975	0.0526	0.366	0.517	0.382	0.0903	0.0763	0.96	1.02	0.911	0.906	0.612	0.464	0.373	0.43	0.0814	0.0616
NCI-H2085	0.783	0.792	0.755	0.429	0.28	0.653	0.769	0.679	0.279	0.236	1.14	1.11	1.13	0.704	0.728	0.684	0.675	0.787	0.286	0.204
NCI-H2087	0.538	0.629	0.553	0.303	0.0973	0.536	0.318	0.488	0.105	0.1	0.9	0.857	0.866	0.438	0.196	0.667	0.401	0.224	0.0576	0.0622
NCI-H2126	0.865	0.91	0.908	0.801	0.518	0.518	0.557	0.525	0.365	0.227	0.837	0.839	0.875	0.887	0.908	0.737	0.652	0.622	0.62	0.663
